# Where a name gives a salt, the structure may show the parent alone. Read-outs that look alike come from different tables or passages of the source.
# Tests used:
# IL-6 production = assay: Inhibition of IL-6 production (ELISA) in IL-1β-stimulated primary human lung fibroblasts; conditions: for inhibition at 10 µM: read-out: Il-6 % Inhibition 10 µM; for inhibition at 30 µM: read-out: Il-6 % Inhibition 30 µM; for IC50: 0.3-30 µM, n = 4
# Protocol: Primary human lung fibroblasts were cultured in DMEM/F-12 medium (Gibco Waltham, MA, USA) complemented with 10% fetal bovine serum (Gibco), penicillin (50 U/mL, Gibco), streptomycin (50 µg/mL, Gibco), L-glutamine (2 mM, Gibco), non-essential amino acids (0.1 mM, Gibco) and insulin (0.12 U/mL, Lilly, Indianapolis, IN, USA) Cells were used at passage 7.
# [1] = biological target: T1, human synthetic MSK1 (14-438-K, Millipore) (Homo sapiens, UniProt O75582); assay: MSK1 enzymatic inhibition assay (Kinase-Glo luminescence); assay type: biochemical; conditions: for inhibition at 1 µM: compound at 1 µM, read-out: MSK1 % Inhibition 1 µM; for inhibition at 1 µM / inhibition at 10 µM / IC50: ± Standard Deviation (n = 4); for inhibition at 10 µM: compound at 10 µM, read-out: MSK1 % Inhibition 10 µM; for IC50: 8 concentrations 0.03-100 µM, read-out: MSK1 IC50; for MSK1 inhibitory activity (in words): tested at 1 and 10 µM
# T1 construct: purchased Millipore 14-438-K
# Protocol: All results are summarized in Table 1, Table 2, Table 3, Table 4 and Table 5 and on Figure 4. […]
# An orthogonal luminescence-based assay Kinase-Glo® (Promega, Madison, WI, USA) was used to validate the hits, quantifying the amount of the remaining ATP in the solution following the kinase reaction. Enzymatic reactions were performed up to 4h at room temperature in presence of 3 µM ATP. All compounds were tested in quadruplicates at 1 µM and 10 µM. […] Luminescence was measured with EnVision Plate Reader (Perkin Elmer).
# [2] = tested on: human pulmonary fibroblasts; assay: WST-1 cytotoxicity test (cell viability); conditions: for cytotoxicity (in words): WST-1, concentrations up to 30 µM; for cytotoxicity at 30 µM (in words): compound at 30 µM
# Protocol: (§1) A WST1 (Roche) reagent assay was used to determine the cytotoxicity of compounds at 24 h of incubation. […] The absorbance was measured at 450 nm.
# [3] = WST-1 cytotoxicity test (cell viability); conditions: human, human pulmonary (lung) fibroblasts
# Protocol: as §1
# [4] = Homo sapiens, Fibroblast, read-out: Il-6 IC50 (µM), IL-1β stimulation
# T1 sequence (O75582 whole entry): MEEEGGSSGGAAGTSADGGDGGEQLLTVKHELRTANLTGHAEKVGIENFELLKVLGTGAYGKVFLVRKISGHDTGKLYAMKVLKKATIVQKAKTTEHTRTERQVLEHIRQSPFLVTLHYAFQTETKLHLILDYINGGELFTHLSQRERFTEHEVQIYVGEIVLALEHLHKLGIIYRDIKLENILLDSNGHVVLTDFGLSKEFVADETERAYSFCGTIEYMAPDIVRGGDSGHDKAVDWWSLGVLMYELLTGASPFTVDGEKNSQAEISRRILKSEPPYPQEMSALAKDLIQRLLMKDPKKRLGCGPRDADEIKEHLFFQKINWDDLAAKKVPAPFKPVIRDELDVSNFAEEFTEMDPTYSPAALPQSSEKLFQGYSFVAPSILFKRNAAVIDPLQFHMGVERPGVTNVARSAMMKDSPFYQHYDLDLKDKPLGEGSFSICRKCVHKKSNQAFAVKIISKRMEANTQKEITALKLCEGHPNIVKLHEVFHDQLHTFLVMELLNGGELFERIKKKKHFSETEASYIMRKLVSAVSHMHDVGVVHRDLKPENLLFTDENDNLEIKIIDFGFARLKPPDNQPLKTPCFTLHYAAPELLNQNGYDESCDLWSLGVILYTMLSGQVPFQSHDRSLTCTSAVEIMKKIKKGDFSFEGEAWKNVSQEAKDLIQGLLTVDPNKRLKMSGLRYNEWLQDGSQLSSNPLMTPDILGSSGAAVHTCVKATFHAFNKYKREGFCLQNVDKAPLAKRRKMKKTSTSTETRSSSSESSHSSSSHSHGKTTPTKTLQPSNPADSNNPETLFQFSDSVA
Compound,melting point [°C],inhibition at 1 µM [1] [%],inhibition at 10 µM [1] [%],IC50 [1] [µM],also measured
"N=C(N)Nc1cccc(-c2ccncc2)n1 (as salt: trifluoroacetate) [Compound 1r, 1-[6-(Pyridin-4-yl)pyridin-2-yl] guanidiniumtrifluoroacetate]",208 to 209,–,–,–,–
"N=C(N)Nc1cccc(Cc2ccccc2)n1 (as salt: trifluoroacetate) [Compound 17, 1-(6-Benzylpyridin-2-yl) guanidiniumtrifluoroacetate]",161 to 162,–,–,–,–
"N=C(N)Nc1cccc(-c2ccccc2)n1 [Compound 1a, 1-(6-phenylpyridin-2-yl)guanidine]",–,4 ± 4,42 ± 9,17.9 ± 3.9,"inhibition at 10 µM (IL-6 production; Homo sapiens, Fibroblast): 17 ± 7%; inhibition at 30 µM (IL-6 production; Homo sapiens, Fibroblast): 60 ± 4%; IC50 (IL-6 production; [4]): 16.3 ± 6.1 µM; cytotoxicity (in words) [2]: non-toxic; viability at 24 h, 10 µM [3]: 122 ± 14%; viability at 24 h, 30 µM [3]: 103 ± 5%"
"N=C(N)Nc1cccc(-c2ccc(C(F)(F)F)cc2)n1.O=C(O)C(F)(F)F [Compound 1c, 1-[6-(4-Trifluoromethylphenyl)pyridin-2-yl] guanidinium trifluoroacetate]",248 to 249,-6 ± 2,-1 ± 5,–,MSK1 inhibitory activity (in words) [1]: inactive
"N=C(N)Nc1cccc(-c2ccoc2)n1.O=C(O)C(F)(F)F [Compound 1g, 1-[6-(Furan-3-yl)pyridin-2-yl] guanidinium trifluoroacetate]",219 to 221,–,33 ± 8,> 30,–
"N=C(N)Nc1cccc(-c2cc3ccccc3o2)n1.O=C(O)C(F)(F)F [Compound 1h, 1-[6-(1-Benzofuran-2-yl)pyridin-2-yl] guanidinium trifluoroacetate]",269 to 270,–,1 ± 6,–,MSK1 inhibitory activity (in words) [1]: totally inactive
"N=C(N)Nc1cccc(-c2ccccc2F)n1 [Compound 1j, 1-[6-(2-Fluorophenyl)pyridin-2-yl] guanidiniumtrifluoroacetate]",–,6 ± 3,45 ± 9,5 ± 0.5,"inhibition at 10 µM (IL-6 production; Homo sapiens, Fibroblast): 42 ± 4%; cytotoxicity (in words) [2]: cytotoxic; cytotoxicity at 30 µM (in words) [2]: cytotoxic; viability at 24 h, 10 µM [3]: 100 ± 8%; viability at 24 h, 30 µM [3]: 41 ± 9%"
"N=C(N)Nc1cccc(-c2ccccc2C(F)(F)F)n1.O=C(O)C(F)(F)F [Compound 1m, 1-[6-(2-Trifluoromethylphenyl)pyridin-2-yl] guanidinium trifluoroacetate]",157 to 158,4 ± 2,38 ± 9,8.1 ± 1.2,–
"N=C(N)Nc1cccc(-c2cccc(Cl)c2Cl)n1.O=C(O)C(F)(F)F [Compound 1o, 1-[6-(2,3-Dichlorophenyl)pyridin-2-yl] guanidinium trifluoroacetate]",190 to 191,7 ± 3,71 ± 13,2.3 ± 0.3,–
"N=C(N)Nc1cccc(-c2cc(Cl)ccc2Cl)n1 [Compound 1q, 1-[6-(2,5-Dichlorophenyl)pyridin-2-yl] guanidiniumtrifluoroacetate]",–,23 ± 6,84 ± 4,0.9 ± 0.1,"cytotoxicity (in words) [2]: cytotoxic; viability at 24 h, 10 µM [3]: 31 ± 19%; viability at 24 h, 30 µM [3]: 13 ± 1%"
NC1=Nc2cccc(-c3ccccc3)c2CN1 [Compound 37a],–,-19 ± 1,44 ± 1,15.8 ± 3.2,"inhibition at 10 µM (IL-6 production; Homo sapiens, Fibroblast): 18 ± 7%; inhibition at 30 µM (IL-6 production; Homo sapiens, Fibroblast): 23 ± 6%; IC50 (IL-6 production; [4]): > 30 µM; IC50 (IL-6 production; read-out: Il-6 IC50, IL-1β stimulation): > 30 µM; viability at 24 h, 10 µM [3]: 122 ± 14%; viability at 24 h, 30 µM [3]: 103 ± 5%"
"Br.NC1=Nc2cccc(-c3ccc(Cl)cc3)c2CN1 [Compound 37b, 5-(4-Chlorophenyl)-3,4-dihydroquinazolin-2-amine Hydrobromide]",196 to 197,-9 ± 2,0,–,–
"Br.NC1=Nc2cccc(-c3cccc(Cl)c3)c2CN1 [Compound 37d, 5-(3-Chlorophenyl)-3,4-dihydroquinazolin-2-amine Hydrobromide]",228 to 230,-5 ± 4,10 ± 7,–,–
"Br.COc1cccc(-c2cccc3c2CNC(N)=N3)c1 [Compound 37e, 5-(3-Methoxyphenyl)-3,4-dihydroquinazolin-2-amine Hydrobromide]",198 to 199,-6 ± 4,3 ± 7,–,–
"Br.NC1=Nc2cccc(-c3ccccc3Cl)c2CN1 [Compound 37f, 5-(2-Chlorophenyl)-3,4-dihydroquinazolin-2-amine Hydrobromide]",178 to 179,0,38 ± 4,16.4 ± 4,"inhibition at 10 µM (IL-6 production; Homo sapiens, Fibroblast): 17 ± 5%; cytotoxicity at 30 µM (in words) [2]: cytotoxic; viability at 24 h, 10 µM [3]: 100 ± 8%; viability at 24 h, 30 µM [3]: 41 ± 9%"
"Br.COc1ccccc1-c1cccc2c1CNC(N)=N2 [Compound 37g, 5-(2-Methoxyphenyl)-3,4-dihydroquinazolin-2-amine Hydrobromide]",226 to 229,-14 ± 3,-5 ± 1,–,–
"Nc1nc2c(-c3ccccc3)cccc2[nH]1 [Compound 49a, 4-Phenyl-1H-benzo[d]imidazol-2-amine hydrobromide]",–,5 ± 3,46 ± 6,3.6 ± 0.5,"inhibition at 10 µM (IL-6 production; Homo sapiens, Fibroblast): 12 ± 4%; inhibition at 30 µM (IL-6 production; Homo sapiens, Fibroblast): 22 ± 1%; IC50 (IL-6 production; [4]): > 30 µM; viability at 24 h, 10 µM [3]: 93 ± 17%; viability at 24 h, 30 µM [3]: 91 ± 15%"
"Br.Nc1nc2c(-c3ccc(Cl)cc3)cccc2[nH]1 [Compound 49b, 4-(4-Chlorophenyl)-1H-benzo[d]imidazol-2-amine Hydrobromide]",254 to 256,-3 ± 6,49 ± 9,–,–
"Br.COc1ccc(-c2cccc3[nH]c(N)nc23)cc1 [Compound 49c, 4-(4-Methoxyphenyl)-1H-benzo[d]imidazol-2-amine Hydrobromide]",218 to 220,-2 ± 6,25 ± 5,–,–
"Br.Nc1nc2c(-c3cc(Cl)ccc3Cl)cccc2[nH]1 [Compound 49f, 4-(2,5-Dichlorophenyl)-1H-benzo[d]imidazol-2-amine Hydrobromide]",202 to 205,6 ± 3,61 ± 5,6.8 ± 0.8,–
"Br.COc1ccccc1-c1cccc2[nH]c(N)nc12 [Compound 49g, 4-(2-Methoxyphenyl)-1H-benzo[d]imidazol-2-amine Hydrobromide]",61 to 66,-3 ± 5,39 ± 7,–,–
CCCNC1=Nc2cccc(-c3ccccc3)c2CN1 [Compound 60a],70 to 72,0,2 ± 3,–,MSK1 inhibitory activity (in words) [1]: inactivity
c1ccc(NC2=Nc3cccc(-c4ccccc4)c3CN2)cc1 [Compound 60b],77 to 82,-2 ± 1,1 ± 2,–,MSK1 inhibitory activity (in words) [1]: inactivity
"O=S(=O)(NCCNC/C=C/c1ccc(Br)cc1)c1cccc2cnccc12 [Compound H89, H89, reference compound]",–,80 ± 8,93 ± 10,0.25 ± 0.06,"inhibition at 10 µM (IL-6 production; Homo sapiens, Fibroblast): 38 ± 5%; inhibition at 30 µM (IL-6 production; Homo sapiens, Fibroblast): 96 ± 1%; IC50 (IL-6 production; [4]): 10.5 ± 5.1 µM"
"O=S(=O)(c1cccc2cnccc12)N1CCCNCC1 [Fasudil, fasudil, reference compound]",–,50 ± 10,82 ± 10,–,"inhibition at 10 µM (IL-6 production; Homo sapiens, Fibroblast): 38 ± 6%; inhibition at 30 µM (IL-6 production; Homo sapiens, Fibroblast): 81 ± 6%; IC50 (IL-6 production; [4]): 8.5 ± 5.1 µM"

# From publication PMC7828447, “Design, Synthesis and Biological Evaluation of Arylpyridin-2-yl Guanidine Derivatives and Cyclic Mimetics as Novel MSK1 Inhibitors. An Application in an Asthma Model” (Molecules, 2021)
